The nature of series [1]: Solubility in water and aqueous buffers (statement). The class given is physicochemical. The conditions noted are these: drospirenone: in water and aqueous buffers at various pH values.
For series [2] the following is noted: human, in vivo, po. The procedure: 42 healthy women between 18 and 35 years of age were included in an open-label crossover study after their informed consent had been obtained. The aim of the study was to investigate the relative bioavailability of drospirenone and ethinylestradiol from a tablet formulation containing 3 mg drospirenone and 0.03 mg ethinylestradiol with reference to an oral suspension containing 6 mg of drospirenone and 0.06 mg ethinylestradiol per vial.
The bioavailability was determined using serum concentrations of each active agent as parameters.

Series [3] can be described thus: Absolute bioavailability of drospirenone after oral administration. The class given is in vivo, women.
The nature of series [4]: Chemical stability under acid and alkaline conditions (statement). The class given is physicochemical.

For `C#C[C@]1(O)CC[C@H]2[C@@H]3CCc4cc(O)ccc4[C@H]3CC[C@@]21C` [ethinylestradiol, 17α-ethinylestradiol], the solubility result in series [1] is “sparingly soluble”. For the same compound, the relative bioavailability in series [2] was 117%.
`C[C@]12CCC(=O)C=C1[C@@H]1C[C@@H]1[C@H]1[C@@H]3[C@@H]4C[C@@H]4[C@@]4(CCC(=O)O4)[C@@]3(C)CC[C@@H]12` [drospirenone, 6β,7β;15β,16β-dimethylene-3-oxo-17α-pregn-4-ene-21,17-carbolactone] gave a bioavailability in series [3] (human, in vivo, oral administration of a microcrystalline suspension containing 3.13 mg drospirenone to 6 postmenopausal women) of 85%. Further, the absolute bioavailability in series [3] (oral administration of 2 mg drospirenone to 8 young healthy women) is 76%±13%. Moreover, the solubility entry in series [1] is reported as “sparingly soluble”. Besides, in series [4] (acid conditions), the “stability under acid conditions” value is “rearranged to an inactive isomer”. In addition, the “stability under alkaline conditions” value in series [4] (alkaline conditions) is “hydrolysed”. Besides, the relative bioavailability in series [2] is given as 107%.

Values taken from patent publication EP1598069A2, “Pharmaceutical combination of ethinylestradiol and drospirenone for use as a contraceptive” (Schering Aktiengesellschaft, priority 1999, dated 2001).
